The target of experiment [1] is T1, human serotonin 5-HT2C receptor (Homo sapiens, UniProt P28335).
T1 construct: expressed in transfected cells; host or cells: CHO-K1
T1 sequence (P28335 33-458): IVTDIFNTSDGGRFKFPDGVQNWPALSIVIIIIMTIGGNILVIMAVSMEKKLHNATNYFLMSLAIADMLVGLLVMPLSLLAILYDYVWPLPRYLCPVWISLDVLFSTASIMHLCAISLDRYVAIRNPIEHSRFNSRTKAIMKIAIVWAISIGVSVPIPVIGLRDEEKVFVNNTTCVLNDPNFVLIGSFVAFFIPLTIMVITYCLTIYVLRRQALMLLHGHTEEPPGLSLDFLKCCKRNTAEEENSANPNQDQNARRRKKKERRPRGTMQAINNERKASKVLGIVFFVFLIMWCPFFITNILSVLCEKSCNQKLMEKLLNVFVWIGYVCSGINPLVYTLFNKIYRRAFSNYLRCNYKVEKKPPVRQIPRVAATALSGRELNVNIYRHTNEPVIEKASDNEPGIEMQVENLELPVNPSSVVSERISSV
The experiment in a line: Radioligand binding assay, human 5-HT2C receptors ([3H]Mesulergine). The essentials:
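Membranes from CHO-K1 cells stably expressing human 5-HT2C receptor were prepared in modified Tris-HCl pH 7.7 buffer. Non-specific binding was defined with 1 μM mianserin.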

The target in experiment [2] is T2, human serotonin 5-HT2B receptor (Homo sapiens, UniProt P41595).
T2 construct: expressed in transfected cells; host or cells: CHO-K1
T2 sequence (P41595 whole entry): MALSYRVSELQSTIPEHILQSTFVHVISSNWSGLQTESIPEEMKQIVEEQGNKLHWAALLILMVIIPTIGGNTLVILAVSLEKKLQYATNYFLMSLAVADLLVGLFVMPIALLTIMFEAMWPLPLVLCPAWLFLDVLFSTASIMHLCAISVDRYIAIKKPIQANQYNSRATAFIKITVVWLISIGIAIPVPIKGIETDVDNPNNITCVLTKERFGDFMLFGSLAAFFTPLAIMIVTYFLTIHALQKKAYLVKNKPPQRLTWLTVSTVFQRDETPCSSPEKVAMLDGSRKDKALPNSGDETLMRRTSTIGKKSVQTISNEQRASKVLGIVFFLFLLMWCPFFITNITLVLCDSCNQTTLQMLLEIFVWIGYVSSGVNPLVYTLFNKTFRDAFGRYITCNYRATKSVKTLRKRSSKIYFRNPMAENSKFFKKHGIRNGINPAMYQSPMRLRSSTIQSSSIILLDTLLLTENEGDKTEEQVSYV
The experiment in a line: Radioligand binding assay, human 5-HT2B receptors ([3H]LSD). In short, it runs like this: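 Membranes from CHO-K1 cells stably expressing human 5-HT2B, in modified Tris-HCl pH 7.4, bound with [3H]LSD. Non-specific binding defined with 10 μM serotonin; specific binding counted after filtration and three washes.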

Experiment [3] has as its target T3, human muscarinic M2 receptor (Homo sapiens, UniProt P08172).
T3 construct: expressed in transfected cells; host or cells: BSR-M2H
T3 sequence (P08172 1-466): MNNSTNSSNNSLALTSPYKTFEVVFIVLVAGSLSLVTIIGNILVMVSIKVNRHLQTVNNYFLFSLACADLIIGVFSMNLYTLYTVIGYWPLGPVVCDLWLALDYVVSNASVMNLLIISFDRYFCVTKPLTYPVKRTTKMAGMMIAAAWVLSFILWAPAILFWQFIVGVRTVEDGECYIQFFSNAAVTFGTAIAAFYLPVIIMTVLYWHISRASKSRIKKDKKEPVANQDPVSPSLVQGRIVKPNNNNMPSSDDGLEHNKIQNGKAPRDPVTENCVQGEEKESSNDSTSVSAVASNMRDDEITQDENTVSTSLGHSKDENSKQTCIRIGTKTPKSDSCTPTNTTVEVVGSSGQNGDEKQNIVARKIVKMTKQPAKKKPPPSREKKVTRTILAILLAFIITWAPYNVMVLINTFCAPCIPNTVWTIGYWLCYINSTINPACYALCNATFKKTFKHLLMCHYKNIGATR
The experiment in a line: Binding to human muscarinic M2 receptors ([3H]N-methylscopolamine). Here is the method:
This assay measures binding of [^3H]N-methylscopolamine to human muscarinic M2 receptors. BSR-M2H cells transfected with a plasmid encoding the human muscarinic M2 receptor were used to prepare membranes in modified Tris-HCl pH 7.4 buffer using standard techniques. A 5 μg aliquot of membrane was incubated with 0.29 nM [^3H]N-methylscopolamine for 60 minutes at 25° C. Non-specific binding was estimated in the presence of 1 μM atropine. Membranes were filtered and washed 3 times and the filters were counted to determine [^3H]N-methylscopolamine specifically bound. See Buckley, N. J., Bonner, T. I., Buckley, C. M. and Brann, M. R. Antagonist binding properties of five cloned muscarinic receptors expressed in CHO-K1 cells. Mol. Pharmacol. 35: 469–476, 1989; and Delmendo, R. E., Michel, A. D. and Whiting, R. L. Affinity of muscarinic receptor antagonists for the three putative muscarinic binding sites. Br. J. Pharmacol. 96: 457–464, 1989.
The human 5-HT2a and 5-HT2b screens were conducted according to Bonhaus, D. W. et al. Br. J. Pharmacol. 1995, 115, 622. The human […], W. A. et al. J. Neurochem. 1997, 69, 1449. The human 5-HT6 screen was conducted according to Monsama, F. J. et al. Mol. Pharmacol. 1993, 43, 320. The assay to human D3 receptors was conducted according to Sokoloff, P. et al. Nature 1990, 347;146. The human dopamine transporter assay was conducted according to Gu, H. et. al. J. Biol. Chem. 1994, 269 (10);7124; and Giros, B. et al. Trends. Pharmacol. Sci. 1993, 14: 43. The human muscarinic M1–M4 screens were conducted according to Buckley N. J. et al. Mol. Pharmacol. 1989, 35:469.
The human dopamine transporter assay was conducted according to Gu, H. et. al. J. Biol. Chem. 1994, 269 (10);7124 and Giros, B. et al. Trends. Pharmacol. Sci. 1993, 14: 43. The human muscarinic M1–M4 screens were conducted according to Buckley N. J. et al. Mol. Pharmacol. 199, 35:469

Where [4] appears, read: human 5-HT2c, Example 16 table, read-out: IC50 (nM) 5-HT2c.
Where [5] appears, read: human 5-HT2b, Example 16 table, read-out: IC50 (nM) 5-HT2b.
The mark [6] stands for this setting: human, Example 101 table, read-out: IC50 (nM) M2.
[7] abbreviates: human, Example 100 table, read-out: IC50 (nM) 5-HT2C.
Setting [8] is: human, Example 100 table, read-out: IC50 (nM) 5-HT2B.
The mark [9] stands for this setting: human, Example 100 table, read-out: IC50 (nM) M2.

SMILES strings stand for the structures. Read-outs that look alike come from different tables or passages of the source.

Consider `Clc1ccc(C2(c3csc(N4CCNCC4)n3)CCOCC2)cc1` [Compound 37], for which the figures for the IC50 in experiment [1] (setting [4]), in experiment [2] (setting [5]) and in experiment [3] (setting [6]) were under 1000 nM, over 1000 nM and over 1000 nM, respectively.
Consider `CN1CCCC1CCNc1nc(C2(c3ccccc3F)CCCCC2)cs1` (racemic) [Compound 128, {4-[1-(2-fluorophenyl)-cyclohexyl]-thiazol-2-yl}-[2-(1-methyl-pyrrolidin-2-yl)-ethyl]-amine], for which the IC50 (commonly the point on the concentration scale where inhibition reaches its midpoint) in experiment [1] (setting [7]) is under 10 nM; in experiment [2] (setting [8]) it was under 1000 nM; in experiment [3] (setting [9]), over 1000 nM.
As for `CN1CCN(c2nc(C3(c4ccccc4F)CCOCC3)cs2)CC1` [Compound 112], the IC50 in experiment [3] (setting [9]) was over 1000 nM.
As to `CN1CCN(c2nc(C3(c4cccc(Cl)c4)CCOCC3)cs2)CC1` [Compound 63], the IC50 was under 1000 nM in experiment [1] (setting [4]), under 1000 nM in experiment [2] (setting [5]) and over 1000 nM in experiment [3] (setting [6]).
Turning to `CN1CCCC1CCNc1nc(C2(c3ccccc3F)CCCCC2)cs1` (single isomer, unassigned) [Compound 130, {4-[1-(2-fluorophenyl)-cyclohexyl]-thiazol-2-yl}-[2-(1-methyl-pyrrolidin-2-yl)-ethyl]-amine], the half-maximal inhibitory concentration (IC50) in experiment [1] (setting [7]) is under 10 nM; in experiment [2] (setting [8]), under 100 nM; in experiment [3] (setting [9]) it was over 1000 nM.
For `CN1CCN(c2nc(C3(c4csc5ccc(Cl)cc45)CCOCC3)cs2)CC1` [Compound 36], the IC50 is under 1000 nM in experiment [1] (setting [4]), under 1000 nM in experiment [2] (setting [5]) and over 1000 nM in experiment [3] (setting [6]).
Consider `CN1CCN(c2nc(C3(c4ccccc4F)CCCC3)cs2)CC1` [Compound 93], for which the IC50 in experiment [1] (setting [4]) is under 100 nM; in experiment [2] (setting [5]), under 1000 nM; in experiment [3] (setting [6]), under 500 nM.
For the molecule `CN1CCN(c2nc(C3(c4ccccc4F)CCCCC3)cs2)CC1` [Compound 83], the figures for the 50% inhibitory concentration (IC50) in experiment [1] (setting [4]), in experiment [2] (setting [5]) and in experiment [3] (setting [6]) were under 100 nM, under 100 nM and over 1000 nM, respectively.
On to `CN1CCN(c2nc(C3(c4ccccc4)CCOCC3)cs2)CC1` [Compound 59], for which the IC50 was over 1000 nM in experiment [1] (IC50 (nM) 5-HT2c, human 5-HT2c, Example 16 table); over 1000 nM in experiment [2]; over 1000 nM in experiment [3].
